Drawing on patent publication US8205612B2, “Dry powder aerosol generator” (The University of North Carolina at Chapel Hill, NC, priority 2007, dated 2012), this text covers AUCIV for one substance.

The conditions of this data set: in vivo, iv, 20 mg/kg. Here is the method: Where F is the absolute bioavailability, AUCLUNG and DLUNG are the area under the curve and dose, respectively, for drug administration through the lung. AUCIV and DIV are areas under the curve and dose, respectively, of drug administered intravenously. From internal PK Studies performed, it is known that F equals 0.54 for capreomycin particles administered through the lungs, AUCIV equals 48.47 μgh/ml, and DIV equals 20 mg/kg.

Substance capreomycin returned an AUCIV of 48.47 μgh/ml.
